Patent US10292965B2, “Nintedanib diethanesulfonate salt crystal and preparation method and use thereof” (Chia Tai Tianqing Pharmaceutical Group Co., Ltd., priority 2015, dated 2019)

What was measured:
Type in all cases: physicochemical
[1] = Intrinsic dissolution rate, rotating disk method (USP Chapter 1087); conditions: 700 ml 0.1 mol/L hydrochloric acid, 300 rpm, 37° C., detection 287 nm
Procedure: Intrinsic dissolution rates of the crystalline Form A of nintedanib diethanesulfonate prepared in Example 1 and the crystalline form of nintedanib diethanesulfonate prepared according to WO2012068441 (the existing crystal) were determined by using the intrinsic dissolution rotating disk method in Chapter 1087 of the U.S. Pharmacopeia, and the results are shown in Table 2. Dissolution Medium: 700 ml of 0.1 mol/L hydrochloric acid solution, Rotating Speed: 300 rpm, Detection Wavelength: 287 nm, Medium Temperature: 37° C.

[2] = Moisture content after storage under high humidity and accelerated test conditions; conditions: high humidity (25° C., 92.5% RH) and accelerated test conditions (40±2° C., 75%±5% RH) for 10 days
[3] = Stability test (influence factors: high-humidity, light irradiation, accelerated test); sample purity measured; conditions: for purity of the sample, accelerated test: accelerated test 40° C.±2° C., relative humidity 75%±5%; for purity of the sample, initial value: day 0, initial value; for purity of the sample, high-humidity test: high-humidity 25° C., 92.5% RH; for purity of the sample, light irradiation test: light irradiation 10000 lx±500 lx
Source text: The tests last for 10 days. Samples were taken on days 0, 5 and 10 to measure the purities of the samples so as to determine their stabilities.

Row | Average dissolution rate [1] | Maximum dissolution rate [1] | moisture content ([2]; listed as crystalline Form A of nintedanib diethanesulfonate) | purity of the sample, accelerated test ([3]; day 10) | purity of the sample, initial value [3] | purity of the sample, high-humidity test ([3]; day 5) | purity of the sample, high-humidity test ([3]; day 10) | purity of the sample, light irradiation test ([3]; day 5) | purity of the sample, light irradiation test ([3]; day 10) | character (appearance) after storage [2] | moisture content ([2]; listed as crystalline form of nintedanib diethanesulfonate prepared according to WO2012068) | SMILES
1 | 22.508 µg/mL/min | 23.344 µg/mL/min | essentially unchanged | 99.77% | 99.80% | 99.78% | 99.79% | 99.79% | 99.70% | – | – | CCS(=O)(=O)O.COC(=O)c1ccc2c(c1)NC(=O)/C2=C(\Nc1ccc(N(C)C(=O)CN2CCN(C)CC2)cc1)c1ccccc1 [The crystalline Form A, nintedanib diethanesulfonate]
2 | 13.373 µg/mL/min | 14.689 µg/mL/min | – | 95.10% | 99.78% | 99.72% | 99.67% | 99.73% | 99.19% | absorbs moisture to become clumping | increases significantly | CCS(=O)(=O)O.COC(=O)c1ccc2c(c1)NC(=O)/C2=C(\Nc1ccc(N(C)C(=O)CN2CCN(C)CC2)cc1)c1ccccc1 [The existing crystal, nintedanib diethanesulfonate]
